US20240216338A1, “NEW FORMULATIONS AND USES” (ALZECURE PHARMA AB, priority 2021, published 2024)
Like-named read-outs stand apart in the source and are kept apart here. Where no end group is shown, it is not given here.

Experiments:
mice = conditions: topical, WO 2018/048779; cited from earlier work
[1] = oral medication; Quiding et al. PAIN 154 (2013); cited from earlier work
healthy volunteers [2] = conditions: for Cohen's d, VAS (0-5 min): Capsaicin, 95 mg oral vs placebo
healthy volunteers [3] = assay: VAS-Pain (post-laser pain); type: in vivo, human; conditions: for Mean (LEP induced VAS pain): n=24; for VAS Mean Difference: topical, difference from placebo, day 4 (AUC)
Procedure: (§1) At Day 1, Areas 1-4 were treated with 1 ml of the Compound 1 Gel (0.05 ml/cm^2) or placebo and were tested for changes in LEP-amplitudes and Visual Analog Scale Rating of Pain (VAS-P). Assessments were performed before and after (investigational medicinal product) IMP application. At Days 2 and 3, LEPs and VAS-P assessments will also be performed before and 1 h after the second and third application of IMP at the same time as on Day 1 (±1 h). At test Day 4, LEPs and VAS-P were evaluated for areas 1-4 at 1, 6 and 9 h after the 4th IMP application.
At the 2 h time point on Day 4, skin areas 5 and 6 will be UVR irradiated with 2 MED. LEPs, VAS-P, erythema (by skin reflection spectrometry (SRS)) and pin prick hyperalgesia (by weighted needle threshold (WNT)) were evaluated before and 1, 2, 3, 6 and 9 h after UVR. At the same time points, anti-inflammatory effects on the areas of UVR will be evaluated by SRS with the a-value being the measure of “redness”. Subjects returned on Day 5 for the 5th IMP application. One hour after IMP application and 24±1 h after UVR, LEPs and VAS-Pain were evaluated on areas 1-6. In addition, erythema (SRS) and pin prick hyperalgesia (WNT) were evaluated on areas 5 and 6. Subjects returned for a follow-up visit at Day 9 (±1).
VAS-Pain is a subjective assessment of pain, which was used for all skin conditions. Electronic nociceptive scoring with electronic 100-mm visual analog scales (VASs) for post-laser pain (VAS-P) was assessed on a tablet PC, which allowed the subject to discriminate pain severity between no pain and strong pain using a 0 to 100 mm scale. The measurements were taken after each laser session—summarizing the overall impression of the “painfulness” of the whole session.
The statistical analysis was based on the evaluation of treatment related differences at the individual time points and comparison of the AUC (Area Under the Curve) parameter derived from the efficacy endpoints.
The timepoints to be included in the calculation of the AUC depended on the objective. • 1. For evaluating objective a) and b) (treatment areas 1-4), two AUC calculations were used • a. All evaluations at 1 h after IMP application at Days 1-5, the assessment at predose on Day 1 served as reference. • b. Evaluations at all timepoints at Day 4 and before IMP application on Day 5 • 2. For evaluating objective c) and d) all timepoints at Day 4 and the assessments before IMP application on Day 5 will be included in the calculation of the AUC related to treatment areas (treatment area 5 and 6).
Those parameters were analysed using a linear mixed regression model. The regression included the classification variable treatment (A1, A2, B1 and B2 resp. A3 and B3) and the corresponding baseline value (pre dose measurement on normal skin) as fixed effects and the intercept over the subjects as a random effect.
All treatment differences with 95% confidence intervals were estimated from this model. The null-hypotheses that these differences are equal to zero (no difference between active treatments and placebo) were tested at the 5% level against the two-sided alternatives.
Data used from study described in Example 2 for calculating Cohen's D were taken at the 1, 6 and 9 hour time points on day 4 of the study and are shown in the table below. The standard deviation (SD) was derived from the standard error (SE) taking into account the sample size of n=24.

healthy volunteers [4] = assay: Laser algesimetry, laser evoked potentials (LEP), N2-P2 Peak-to-Peak amplitude; type: in vivo, human; conditions: for PtP Mean Difference: topical, difference from placebo, day 4 (AUC)
Procedure: Healthy volunteers were screened for eligibility from Day −28 to Day −2 before first treatment. During screening also, a training session (without study medication) was performed in order to introduce subjects to the testing and rating procedures. Prior to testing the laser evoked potentials (LEPs) from healthy skin, the individual Laser Pain Threshold (LPT) was be determined for each volunteer.
as §1
At the 2 h time point on Day 4, skin areas 5 and 6 will be UVR irradiated with 2 MED. LEPs, VAS-P, erythema (by skin reflection spectrometry (SRS)) and pin prick hyperalgesia (by weighted needle threshold (WNT)) were evaluated before and 1, 2, 3, 6 and 9 h after UVR. At the same time points, anti-inflammatory effects on the areas of UVR will be evaluated by SRS with the a-value being the measure of “redness”. […] One hour after IMP application and 24±1 h after UVR, LEPs and VAS-Pain were evaluated on areas 1-6. In addition, erythema (SRS) and pin prick hyperalgesia (WNT) were evaluated on areas 5 and 6. […]
Laser algesimetry is an experimental induction of pain by means of a contact-free thermo-nociceptive laser beam with a constant short duration (ms) and individually adjusted intensity above the pain threshold (determined at Screening). Objective and quantitative measurement of nociception is accomplished by the analysis of the contingent vertex EEG event-related potentials (somatosensory/radiant heat ERPs).
The study effects of the study medications (the Compound 1 Gel and placebo) were measured as a reduction in the PtP amplitude. […]

[5] = test system: patients undergoing surgical removal of a mandibular third molar; assay: Molar extraction study (legacy), oral AZD1386, pain intensity VAS; type: in vivo, human; conditions: 95 mg oral vs placebo
Procedure: This was a single dose, randomised, double-blind, double dummy, placebo- and Naproxen controlled study to investigate the analgesic efficacy of AZD1386 95 mg in patients undergoing surgical removal of a partially or completely impacted mandibular third molar, where bone removal was judged to be needed. Naproxen 500 mg was included as a treatment arm, for assay sensitivity only.
Patients requesting pain relief, due to pain from the dental surgical area, within 6 hours after the end of the administration of the local anaesthetic (last anaesthetic dose) were randomised to 1 of 3 treatment arms: 40 patients received AZD1386 95 mg oral solution and Naproxen placebo capsule, 40 patients received AZD1386 placebo oral solution and Naproxen placebo capsule and 23 patients received AZD1386 placebo oral solution and Naproxen 500 mg (for assay sensitivity only). A visual Analogue Scale (VAS) was used for the assessment of pain intensity and pain on jaw movement. The VAS consists of an ungraduated 100 mm horizontal line with the left end (0 mm) marked “No pain” and the right end (100 mm) marked “Worst pain imaginable”. The patient indicated his/her present pain intensity and pain on jaw movement by drawing a vertical line across the scale on paper CRF pages. The pain intensity was rated by the patients immediately prior to administration of the investigational product, and subsequent assessments were performed at 15 min, 30 min, 45 min, 1 h, 1 h15 min, 1 h30 min, 1 h45 min, 2 h, 2 h30 min, 3 h, 4 h, 5 h, 6 h, 7 h, and 8 h after the start of administration of the investigational product.

healthy volunteers [6] = assay: tolerability in the clinical study; conditions: normal skin, skin with a compromised barrier function and inflamed skin
healthy volunteers [7] = conditions: difference from placebo, cited from earlier work
healthy volunteers [8] = conditions: difference from placebo, cited from earlier work; remark: listed apart in the source
[9] = Duloxetin 60 mg (oral), Schaffler et al. (2017)
[10] = Etoricoxib 90 mg (oral), Schaffler et al. (2013)
[11] = Lacosamide 60 mg (oral), Schaffler et al. (2017)
[12] = Pregabalin 150 mg (oral), Schaffler et al. (2017)
[13] = Tramadol 100 mg (oral), Schaffler et al. (2013)

For `CC(C)(C)c1ccc(/C=C/C(=O)Nc2ccc3c(c2)OCCO3)cc1` [AMG9810], the capsaicin-induced wound licking (mice) is listed as “reduced”.
For `C[C@H](NC(=O)Cn1cnc2ccc(F)c(F)c21)c1ccc(C(C)(C)C)cc1` [Compound 1], the liver enzymes [1] is listed as “elevations in liver enzymes”, the “Cohen's d, VAS (0-5 min)” value (healthy volunteers [2]; 01:08 h after IMP) is listed as 0.04 and the “Cohen's d, VAS (0-5 min)” value (healthy volunteers [2]; 01:38 h after IMP, listed as AZD1386) is listed as 0.3. The “Cohen's d, VAS (0-5 min)” value (healthy volunteers [2]; 02:38 h after IMP) was 0.06, the “Cohen's d, VAS (0-5 min)” value (healthy volunteers [2]; 03:38 h after IMP) was 0.22 and the “Cohen's d, VAS (0-5 min)” value (healthy volunteers [2]; 05:08 h after IMP) was 0.15. The “time of significant analgesic effects after oral administration” value (healthy volunteers [2]; oral, consistent across the two legacy studies) was 1 to 1.5 h, the “Mean (LEP induced VAS pain)” value (healthy volunteers [3]; Day 4, 1 h, Normal skin) was 32.63 mm and the “Mean (LEP induced VAS pain)” value (healthy volunteers [3]; Day 4, 1 h, Optimized skin) was 22.56 mm. For the same compound, the “Mean (LEP induced VAS pain)” value (healthy volunteers [3]; Day 4, 6 h, Normal skin) was 32.41 mm, the “Mean (LEP induced VAS pain)” value (healthy volunteers [3]; Day 4, 6 h, Optimized skin) was 28.01 mm and the “Mean (LEP induced VAS pain)” value (healthy volunteers [3]; Day 4, 9 h, Normal skin) was 35.64 mm. The “Mean (LEP induced VAS pain)” value (healthy volunteers [3]; Day 4, 9 h, Optimized skin) was 32.27 mm, the “VAS Mean Difference” value (healthy volunteers [3]; normal skin) was 13.2 mm and the “VAS Mean Difference” value (healthy volunteers [3]; optimised skin) was 18.7 mm. For the same compound, the “PtP Mean Difference” value (healthy volunteers [4]; normal skin) was 6.8 μV, the “analgesic effects of topical treatment” value (healthy volunteers [4]; normal, optimized and UVR inflamed skin) was “highly superior to placebo” and the “PtP Mean Difference” value (healthy volunteers [4]; optimised skin) was 9.1 μV. The “Cohen's d, VAS (vs basel.)” value ([5]; 01:00 h after IMP) was 0.66, the “Cohen's d, VAS (vs basel.)” value ([5]; 01:30 h after IMP) was 0.12 and the “Cohen's d, VAS (vs basel.)” value ([5]; 02:30 h after IMP) was “in favour”. The “Cohen's d, VAS (vs basel.)” value ([5]; 03:00 h after IMP) was “in favour”, the “Cohen's d, VAS (vs basel.)” value ([5]; 04:00 h after IMP) was “in favour” and the “Cohen's d, VAS (vs basel.)” value ([5]; 05:00 h after IMP) was “in favour”. The “Cohen's d, VAS (vs basel.)” value ([5]; 06:00 h after IMP) was “in favour” and the tolerability (healthy volunteers [6]) was “well tolerated”.
In the case of `CNCC[C@H](Oc1cccc2ccccc12)c1cccs1` [Duloxetin], the “VAS Mean Difference” value (healthy volunteers [7]; [9]) is listed as 2.2 mm and the “PtP Mean Difference” value (healthy volunteers [8]; [9]) is listed as 1.7 μV.
In the case of `Cc1ccc(-c2ncc(Cl)cc2-c2ccc(S(C)(=O)=O)cc2)cn1` [Etoricoxib], the “VAS Mean Difference” value (healthy volunteers [7]; [10]) is listed as 1.2 mm and the “PtP Mean Difference” value (healthy volunteers [8]; [10]) is listed as 0.2 μV.
In the case of `COC[C@@H](NC(C)=O)C(=O)NCc1ccccc1` [Lacosamide], the “VAS Mean Difference” value (healthy volunteers [7]; [11]) is given as 2.1 mm and the “PtP Mean Difference” value (healthy volunteers [8]; [11]) is given as 0.5 μV.
For `CC(C)C[C@H](CN)CC(=O)O` [Pregabalin], the “VAS Mean Difference” value (healthy volunteers [7]; [12]) is listed as 9.1 mm and the “PtP Mean Difference” value (healthy volunteers [8]; [12]) is listed as 2.7 μV.
For `COc1cccc(C2(O)CCCCC2CN(C)C)c1` (centres unmarked) [Tramadol], the “VAS Mean Difference” value (healthy volunteers [7]; [13]) is listed as 7.1 mm and the “PtP Mean Difference” value (healthy volunteers [8]; [13]) is listed as 4.5 μV.
For QRFSR [opiorphin], the capsaicin-induced wound licking (mice) is listed as “reduced”.
